Laboratory results published in patent US7695930B2, “Method for the detection, identification and/or quantification of microoganisms with peptidase activity using phenoxazinone derivatives as enzyme substrates” (Biomerieux, priority 2003, dated 2010).

What was measured:
Format in all cases: cell-based
[1] = tested on: Escherichia coli (NCTC 10418); experiment: Alanine peptidase detection, substrates with one to three amino acids (Example 15); set-up: key to color of the colony: R=pink; RP=pale pink; I=colorless; conditions: 50 mg/l
Experimental: (§1) 1000 ml of Columbia medium was melted in a waterbath at 100° C. and autoclaved at 121° C. for 15 min. It was then cooled to 50° C. in a waterbath.
(§2) This medium was separated into 5 flasks of 200 ml, and then, added at 50° C., as substrates, was that of Example 2 for which A is: • medium 1: L-alanine (L-alanine-9-aminobenzo[a]phenoxazin-5-one or A-ABP), • medium 2: L-alanine-L-alanine (L-alanine-L-alanine-9-aminobenzo-[a]phenoxazin-5-one or AA-ABP), • medium 3: L-alanine-L-alanine-L-alanine (L-alanine-L-alanine-L-alanine-9-aminobenzo[a]phenoxazin-5-one or AAA-ABP), • medium 4: L-alanine-glycine (L-alanine-glycine-9-aminobenzo[a]phenoxazin-5-one or AG-ABP), and • medium 5: glycine-L-alanine (glycine-L-alanine-9-aminobenzo[a]phenoxazin-5-one or GA-ABP), each substrate being solubilized in DMSO and used at a final concentration of 50 mg/l.
(§3) The medium was then poured into Petri dishes.
(§4) Nine microorganism strains derived from the Applicant's collection, suspended in physiological saline, were seeded in colonies on the media prepared in point 15.1 above according to a multipoint inoculation in a proportion of 15 000 cfu/spot. The dishes were incubated at 37° C. for 48 hours. The colonies formed were examined visually after incubation for 24 and 48 hours.
(§5) The results are expressed in Tables 7 and 8 hereinafter according to the rules and the nomenclature stated in paragraph 11.3 and where R=pink, RP=pale pink and I=colorless.

[2] = tested on: Micrococcus luteus (NCTC611); experiment: as above; set-up: key to color of the colony: R=pink; RP=pale pink; I=colorless; conditions: 50 mg/l
Experimental: as §1, §2, §3, §4, §5

[3] = tested on: Acinetobacter baumannii (ATCC 19606); experiment: as above; set-up: key to color of the colony: R=pink; RP=pale pink; I=colorless; conditions: 50 mg/l
Experimental: as §1, §2, §3, §4, §5

[4] = tested on: Staphylococcus epidermis (NCTC 11047); experiment: as above; set-up: key to color of the colony: R=pink; RP=pale pink; I=colorless; conditions: 50 mg/l
Experimental: as §1, §2, §3, §4, §5

[5] = tested on: Staphylococcus aureus (NCTC 6571); experiment: as above; set-up: key to color of the colony: R=pink; RP=pale pink; I=colorless; conditions: 50 mg/l
Experimental: as §1, §2, §3, §4, §5

[6] = tested on: Pseudomonas aerigunosa (NCTC 10038); experiment: as above; set-up: key to color of the colony: R=pink; RP=pale pink; I=colorless; conditions: 50 mg/l
Experimental: as §1, §2, §3, §4, §5

[7] = tested on: Enterobacter clocae (NCTC 11936); experiment: as above; set-up: key to color of the colony: R=pink; RP=pale pink; I=colorless; conditions: 50 mg/l
Experimental: as §1, §2, §3, §4, §5

[8] = tested on: Listeria monocytogenes (NCTC 11994); experiment: as above; set-up: key to color of the colony: R=pink; RP=pale pink; I=colorless; conditions: 50 mg/l
Experimental: as §1, §2, §3, §4, §5

Serratia marcescens = experiment: Leucine-peptidase detection on agar medium (Example 11); for color of the colony: key: B corresponds to fluorescent blue; R corresponds to pink
Experimental: (§6) The detection medium was prepared by mixing 1.4 g of biogelytone (bioMérieux), 0.84 g of meat extract (bioMérieux), 2.24 g of NaCl (Merck), 280 μl of a solution of IPTG (isopropylthio-β-D-galactopyranoside, BIOSYNTH) in water (concentration 10 g/l) and 4.2 g of European agar (bioMérieux).
(§7) The substrate of the invention obtained in Example 2, in which the amino acid is leucine (leucine-9-aminobenzo[a]phenoxazin-5-one or Leu-ABP), or else a substrate of the prior art, which is leucine-aminomethylcoumarin (Leu-AMC, BACHEM), was then added in the following way: 280 ml of osmosed water were added to the medium, and the mixture was melted in a waterbath at 100° C. The mixture was autoclaved for 15 min at 121° C. and cooled to 50° C. in a waterbath.
as §3
(§8) The coloration of these colonies, the diffusion, and also the intensity of this coloration were noted.
(§9) The results were expressed as intensity of coloration using an arbitrary scale ranging from 0 to 4 as a basis and also as diffusion also using an arbitrary scale ranging from 0 to 4 as a basis.

Pseudomonas aeruginosa = experiment: as above
Experimental: as §6, §7, §3, §8, §9

## L-alanyl-9-aminobenzo[a]phenoxazin-5-one [Ala-ABP]
[1]; 24 h
  color of the colony: R
  growth diameter: 3 mm
[1]; 48 h
  color of the colony: R
  growth diameter: 3 mm
[2]; 24 h
  growth diameter: 0 mm
[2]; 48 h
  growth diameter: 0 mm
[3]; 24 h
  color of the colony: R
  growth diameter: 3 mm
[3]; 48 h
  color of the colony: R
  growth diameter: 3 mm
[4]; 24 h
  growth diameter: 0 mm
[4]; 48 h
  growth diameter: 0 mm
[5]; 24 h
  growth diameter: 0 mm
[5]; 48 h
  color of the colony: I
  growth diameter: 2 mm
[6]; 24 h
  color of the colony: R
  growth diameter: 3 mm
[6]; 48 h
  color of the colony: R
  growth diameter: 3 mm
[7]; 24 h
  color of the colony: R
  growth diameter: 3 mm
[7]; 48 h
  color of the colony: R
  growth diameter: 3 mm
[8]; 24 h
  color of the colony: I
  growth diameter: 2 mm
[8]; 48 h
  color of the colony: R
  growth diameter: 2 mm

## leucine-9-aminobenzo[a]phenoxazin-5-one [Leu-ABP]
Serratia marcescens; 24 h, 25 mg/l
  color of the colony: R
  growth diameter: 0.5 mm
  intensity of coloration, scale 0 to 4: 0.5
Serratia marcescens; 24 h, 50 mg/l
  color of the colony: R
  growth diameter: 0.4 mm
  intensity of coloration, scale 0 to 4: 1
Serratia marcescens; 24 h, 100 mg/l
  color of the colony: R
  growth diameter: 0.4 mm
  intensity of coloration, scale 0 to 4: 0.25
Serratia marcescens; 24 h, 200 mg/l
  growth diameter: 0.4 mm
Serratia marcescens; 24 h, 400 mg/l
  growth diameter: 0.4 mm
Serratia marcescens; 48 h, 25 mg/l
  color of the colony: R
  growth diameter: 0.7 mm
  intensity of coloration, scale 0 to 4: 2.5
Serratia marcescens; 48 h, 50 mg/l
  color of the colony: R
  growth diameter: 0.5 mm
  intensity of coloration, scale 0 to 4: 3
Serratia marcescens; 48 h, 100 mg/l
  color of the colony: R
  growth diameter: 0.5 mm
  intensity of coloration, scale 0 to 4: 1.5
Serratia marcescens; 48 h, 200 mg/l
  color of the colony: R
  growth diameter: 0.5 mm
  intensity of coloration, scale 0 to 4: 1
Serratia marcescens; 48 h, 400 mg/l
  color of the colony: R
  growth diameter: 0.5 mm
  intensity of coloration, scale 0 to 4: 0.5
Pseudomonas aeruginosa; 24 h, 25 mg/l
  growth diameter: 2 mm
Pseudomonas aeruginosa; 24 h, 50 mg/l
  color of the colony: R
  growth diameter: 2 mm
  intensity of coloration, scale 0 to 4: 0.75
Pseudomonas aeruginosa; 24 h, 100 mg/l
  color of the colony: R
  growth diameter: 2 mm
  intensity of coloration, scale 0 to 4: 0.75
Pseudomonas aeruginosa; 24 h, 200 mg/l
  color of the colony: R
  growth diameter: 2 mm
  intensity of coloration, scale 0 to 4: 0.5
Pseudomonas aeruginosa; 24 h, 400 mg/l
  color of the colony: R
  growth diameter: 2 mm
  intensity of coloration, scale 0 to 4: 0.5
Pseudomonas aeruginosa; 48 h, 25 mg/l
  color of the colony: R
  growth diameter: 2 mm
  intensity of coloration, scale 0 to 4: 1
Pseudomonas aeruginosa; 48 h, 50 mg/l
  color of the colony: R
  growth diameter: 2 mm
  intensity of coloration, scale 0 to 4: 2.5
Pseudomonas aeruginosa; 48 h, 100 mg/l
  color of the colony: R
  growth diameter: 2 mm
  intensity of coloration, scale 0 to 4: 2.5
Pseudomonas aeruginosa; 48 h, 200 mg/l
  color of the colony: R
  growth diameter: 2 mm
  intensity of coloration, scale 0 to 4: 2
Pseudomonas aeruginosa; 48 h, 400 mg/l
  color of the colony: R
  growth diameter: 2 mm
  intensity of coloration, scale 0 to 4: 0.5
